Common to all, as to assay: DTP human tumour cell line panel, 48 h
Assay [1] concerns MDA-MB-435.
Assay [2] deals with SK-OV-3 ovarian.
Assay [3] has as its system SK-MEL-5 melanoma.
Assay [4] relates to 786-0 renal.
Assay [5] concerns HCC-2998 colon.
For assay [6], the system named is NCI-H23 lung.
Assay [7] deals with OVCAR-4 ovarian.
The test system of assay [8] is OVCAR-5 ovarian.
Assay [9] concerns UO-31 renal.
Assay [10] relates to HT29 colon.

Here are results for nine compounds from PubChem BioAssay (NCI).

Where “and” joins values, the source holds several entries; their conditions need not be identical. Identical values can stand only once.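 48-hour exposure; five concentrations; linearly interpolated endpoints. Abbreviation: GI50, concentration required for 50% inhibition of growth. Definition used: TGI = concentration required for complete inhibition of growth.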

As for `Oc1ccccc1Nc1nc2ccccc2c2occc12`, the GI50 is 9.25 µM in assay [1]; 11.1 µM in assay [2]; 6.1 µM in [3]; 0.399 µM in assay [4]; 3.11 µM in assay [5]; 4.48 µM in assay [6]. Also, the GI50 in assay [7] is 10.8 µM; in assay [8], 12.6 µM; in assay [9] it was 5.91 µM. Further, the TGI in assay [1] worked out at 21.2 µM; in assay [2], 25.2 µM; in [3] it was 19.4 µM; in assay [4], 19.2 µM; in assay [5], 10.3 µM; in assay [6], 17.5 µM. In addition, the concentration for total growth inhibition (TGI) is 31.4 µM in assay [7], 25.1 µM in assay [8] and 19.6 µM in [9].
On to `O=C1Nc2ccccc2/C1=C/c1cn(C(=O)c2c(Cl)cccc2Cl)c2ccccc12`, for which the GI50 is 2.24 µM in assay [1]; 8.35 µM in assay [2]; 7.52 µM in [3]; 3.28 µM in assay [4]; 6.03 µM in [5]; 4.08 µM in assay [6]. For the same compound, the GI50 is 8.85 µM in assay [8], 1.14 µM in assay [9] and 3.92 µM in [10]. Besides, the TGI in [1] worked out at 7.1 µM; in assay [2] it was 56.5 µM; in assay [3], 20.4 µM; in assay [4], 12.7 µM; in assay [5], 19.6 µM; in [6], 17.3 µM. The TGI is 50.1 µM in [8], 7.5 µM in assay [9] and 14.9 µM in assay [10].
As to `CN(C)c1ccc(/C=C/c2ccnc3ccccc23)cc1N`, the TGI came out at 8.06 µM in assay [1]; 31.7 µM in assay [2]; 11.5 µM in [3]; 53.5 µM in assay [4]; 25.3 µM in assay [5]; 21.8 µM in assay [6]. Further, the TGI in [7] amounted to 32.9 µM; in assay [8] it was 31.2 µM; in assay [9] it was 20.2 µM; in assay [10], 17.7 µM.
With `N#Cc1c(-c2ccc(Cl)cc2)c(-c2ccc(Cl)cc2)nn(CCOC(=O)CCC(=O)O)c1=O`, the TGI in assay [1] came out at 0.193 µM; in [2] it was 30.8 µM; in [3] it was 2.59 µM; in assay [4], 55.3 µM; in [5] it was 16.1 µM; in assay [6], 19.6 µM. Besides, the TGI in assay [7] was above 91.6 µM; in assay [8], above 100 µM; in assay [9] it was 50 µM; in [10] it was 6.39 µM.
Take `CC(C)=CCc1ccc(O)c(=O)cc1C(C)C`: the GI50 is 0.814 µM in assay [1]; 0.903 µM in [2]; 0.582 µM in [3]; 0.816 µM in [4]; 0.583 µM in [5]; 0.701 µM in assay [6]. Besides, the GI50 in [7] is 0.532 µM; in assay [8], 3.39 µM; in [9] it was 0.378 µM; in assay [10], 1.51 µM. In addition, the TGI in assay [1] is above 100 µM; in [2], above 100 µM; in assay [3] it was 4.08 µM; in [4], 5.4 µM; in assay [5] it was 29.8 µM; in [6], above 51.3 µM. The TGI is above 100 µM in [7], above 100 µM in assay [8], 3.92 µM in [9] and above 100 µM in assay [10].
Consider `COC(=O)c1cc2c3ccccc3n3c(=O)c4cc5cc(OC)c(N(S(=O)(=O)c6ccc(C)cc6)S(=O)(=O)c6ccc(C)cc6)cc5nc4c(n1)c23`, for which the GI50 in [1] is above 100 µM; in [2], 4.53 µM; in assay [3], above 100 µM; in [4], 3.23 µM; in [5], above 100 µM; in [6], 16.7 µM. The GI50 in [7], in [8] and in [10] was above 100 µM in each case. Also, the TGI in assay [1] is above 100 µM; in assay [2], 81.3 µM; in [3], above 100 µM; in assay [4] it was 14.5 µM; in assay [5], above 100 µM; in [6] it was 63.2 µM. The TGI in assay [7], in assay [8] and in [10] was above 100 µM throughout.
For the compound `O=C(CC(O)c1ccncc1)c1ccccc1` (configuration not stated), the GI50 in assay [1] was 20.8 µM; in assay [2], 25.4 µM; in assay [3], 16.1 µM; in assay [4], 30 µM; in [5], 35 µM; in [6] it was 42.8 µM. The GI50 in [7] is 20.5 µM; in assay [8], 37.6 µM; in [9] it was 22.1 µM; in assay [10] it was 28.6 µM. Also, the TGI in assay [1] is 56.5 µM; in assay [2], 93.3 µM; in assay [3], 30.8 µM; in assay [4], above 100 µM; in [5] it was above 100 µM; in assay [6], above 100 µM. The TGI was above 100 µM in assay [7], above 100 µM in assay [8], above 100 µM in [9] and 85.3 µM in assay [10].
Take `Nc1nc(Cl)c(N=Nc2ccc(Cl)cc2)c(NCC2(CO)CC(OCc3ccccc3)C2)n1` (configuration not stated): the TGI in [1] was 14.2 µM and > 100 µM and 59.2 µM; in assay [2] it was 69.9 µM and > 100 µM and 30 µM; in assay [3] it was 21 µM and > 100 µM and 38.7 µM; in assay [5], 87.3 µM and > 100 µM and 16.9 µM; in [6], 24.9 µM and > 100 µM and 13.9 µM; in assay [8], > 100 µM and 30.2 µM. Moreover, the TGI in assay [9] is 12.5 µM and 6.43 µM; in assay [10], 20 µM and > 100 µM and 14 µM. Besides, the GI50 in assay [4] is 5.31 µM and 11.1 µM and 2.12 µM; in [6] it was 3.76 µM and 25 µM and 3.09 µM; in assay [7], 2.25 µM and 15.9 µM and 3.65 µM; in assay [8] it was 13.4 µM and > 100 µM and 12 µM; in [9], 3.27 µM.
Turning to `COc1ccc(Cn2cc3c(c2-c2ccc(O)cc2)CCc2cnoc2-3)cc1`, the GI50 was 0.0737 µM in assay [1]; 0.34 µM in [2]; 0.315 µM in assay [3]; 0.695 µM in assay [4]; 0.602 µM in [5]; 0.461 µM in assay [6]. The GI50 is 1.76 µM in assay [7], 0.829 µM in assay [8], 0.653 µM in assay [9] and 0.587 µM in assay [10]. Moreover, the TGI in assay [1] was determined as 0.365 µM; in [2] it was 14.3 µM; in [3] it was 12.6 µM; in assay [4], 19.1 µM; in assay [5] it was 12.9 µM; in [6], 17.8 µM. For the same compound, the TGI is 19.6 µM in assay [7], 21.6 µM in assay [8], 18.7 µM in [9] and 4.79 µM in assay [10].

As a reminder, the GI50 is the concentration giving 50% growth inhibition. The term TGI denotes the concentration at which net growth stops. Read a high TGI as less potent growth arrest.
